We go through three molecules from patent publication US20150218212A1, “FLUORINATED EPOXYKETONE-BASED TETRAPEPTIDE COMPOUNDS AND USES THEREOF AS PROTEASOME INHIBITORS” (FLUORINOV PHARMA INC., priority 2012, published 2015).

What all share (assay type): cell-based, human
For one test, the system named is SF-295. The experiment in a line: NCI screening panel, SF-295 (CNS Cancer). The procedure:
(§1) Representative compounds of Formula I were screened using the National Cancer Institute (NCI) screening panel, which consists of a panel of human tumor cell lines, representing leukemia, melanoma, and cancers of the lung, colon, ovary, breast, prostate and renal system.
(§2) After 24 h, two plates of each cell line are fixed in situ with TCA, to represent a measurement of the cell population for each cell line at the time of drug addition (Tz). Experimental drugs are solubilised in dimethyl sulfoxide at 400-fold the desired final maximum test concentration and stored frozen prior to use. At the time of drug addition, an aliquot of frozen concentrate is thawed and diluted to twice the desired final maximum test concentration with complete medium containing 50 μg/mL gentamicin. Additional four, 10-fold or ½ log serial dilutions are made to provide a total of five drug concentrations plus control. Aliquots of 100 μl of these different drug dilutions are added to the appropriate microtiter wells already containing 100 μl of medium, resulting in the required final drug concentrations.
(§3) Following drug addition, the plates are incubated for an additional 48 h at 37° C., 5% CO2, 95% air, and 100% relative humidity. For adherent cells, the assay is terminated by the addition of cold TCA (trichloroacetic acid). Cells are fixed in situ by the gentle addition of 50 μl of cold 50% (w/v) TCA (final concentration, 10% TCA) and incubated for 60 minutes at 4° C. The supernatant is discarded, and the plates are washed five times with tap water and air dried. Sulforhodamine B (SRB) solution (100 μl) at 0.4% (w/v) in 1% acetic acid is added to each well, and plates are incubated for 10 minutes at room temperature. After staining, unbound dye is removed by washing five times with 1% acetic acid and the plates are air dried. Bound stain is subsequently solubilised with 10 mM trizma base, and the absorbance is read on an automated plate reader at a wavelength of 515 nm. For suspension cells, the methodology is the same except that the assay is terminated by fixing settled cells at the bottom of the wells by gently adding 50 μl of 80% TCA (final concentration, 16% TCA). Using the seven absorbance measurements [time zero, (Tz), control growth, (C), and test growth in the presence of drug at the five concentration levels (Ti)], the percentage growth is calculated at each of the drug concentrations levels. Percentage growth inhibition is calculated as: [(Ti−Tz)/(C−Tz)]×100 for concentrations for which Ti>/=Tz and [(Ti−Tz)/Tz]×100 for concentrations for which Ti<Tz.
(§4) Three dose response parameters are calculated for each experimental agent. Growth inhibition of 50% (GI50) is calculated from [(Ti−Tz)/(C−Tz)]×100=50, which is the drug concentration resulting in a 50% reduction in the net protein increase (as measured by SRB staining) in control cells during the drug incubation. The drug concentration resulting in total growth inhibition (TGI) is calculated from Ti=Tz. The LC50 (concentration of drug resulting in a 50% reduction in the measured protein at the end of the drug treatment as compared to that at the beginning) indicating a net loss of cells following treatment is calculated from [(Ti−Tz)/Tz]×100=−50. Values are calculated for each of these three parameters if the level of activity is reached. However, if the effect is not reached or is exceeded, the value for that parameter is expressed as greater or less than the maximum or minimum concentration tested.

A further test concerns ACHN. The experiment in a line: NCI screening panel, ACHN (Renal Cancer). The procedure: as §1, §2, §3, §4
The test system of the next test is HCT-116. The experiment in a line: NCI screening panel, HCT-116 (Colon Cancer). The procedure: as §1, §2, §3, §4
For a further test, the system named is SK-OV-3. The experiment in a line: NCI screening panel, SK-OV-3 (Ovarian Cancer). On the procedure:
as §1, §2, §3, §4

The subject of the next test is LOX IMVI. The experiment in a line: NCI screening panel, LOX IMVI (Melanoma). On the procedure: as §1, §2, §3, §4
For a further test, the system named is MALME-3M. Nature of the test: NCI screening panel, MALME-3M (Melanoma). The procedure:
as §1, §2, §3, §4

The next test relates to NCI-H460. The experiment in a line: NCI screening panel, NCI-H460 (Non-Small Cell Lung Cancer). The procedure: as §1, §2, §3, §4
Another test deals with CAKI-1. Nature of the test: NCI screening panel, CAKI-1 (Renal Cancer). The procedure:
as §1, §2, §3, §4

As to `CC(C)C[C@H](NC(=O)[C@H](COC(F)F)NC(=O)CN1CCOCC1)C(=O)N[C@@H](COC(F)F)C(=O)N[C@@H](Cc1ccccc1)C(=O)[C@@]1(C)CO1` [Example 4, (2S)-N-[(1S)-2-[[(1S)-1-benzyl-2-[(2R)-2-methyloxiran-2-yl]-2-oxo-ethyl]amino]-1-(difluoromethoxymethyl)-2-oxo-ethyl]-2-[[(2S)-3-(difluoromethoxy)-2-[(2-mor-pholinoacetyl)amino]propanoyl]amino]-4 methyl-pentanamide], the Log10GI50 in the test on SF-295 was −7.48; in the test with ACHN, −6.32; in the test on HCT-116, −7.70; in the test on SK-OV-3 it was −6.84; in the test with LOX IMVI it was −7.77; in the test with MALME-3M it was −7.49. Further, the Log10GI50 in the test with NCI-H460 is −6.84; with CAKI-1, −6.20. In addition, the Log10LC50 is given as −5.22 in the test with SF-295; >−4.00 with ACHN; −4.57 in the test with HCT-116; >−4.00 with SK-OV-3; −7.06 in the test with LOX IMVI; >−4.00 in the test on MALME-3M. The Log10LC50 is −4.04 in the test with NCI-H460 and >−4.00 in the test on CAKI-1. In addition, the Log10TGI50 in the test on SF-295 is listed as −6.60; in the test on ACHN it was >−4.00; with HCT-116 it was −6.98; with SK-OV-3, −6.02; with LOX IMVI it was −7.42; in the test on MALME-3M it was −6.38. Further, the Log10TGI50 with NCI-H460 is recorded as −6.19; in the test on CAKI-1, −5.22.

Turning to `CC(C)C[C@H](NC(=O)[C@H](Cc1ccccc1)NC(=O)[C@H](COC(F)F)NC(=O)[C@H](COC(F)F)NC(=O)CN1CCOCC1)C(=O)[C@@]1(C)CO1` [Example 11, (2S)-2-[[(2S)-3-(difluoromethoxy)-2-[[(2S)-3-(difluoromethoxy)-2-[(2-morpholinoacetyl)-amino]propanoyl]amino]propanoyl]amino]-N-[(1S)-3-methyl-1-[(2R)-2-methyloxirane-2-carbonyl]butyl]-3-phenyl-propanamide], the Log10GI50 in the test with SF-295 is recorded as −5.96; in the test on ACHN, −6.40; in the test on HCT-116, <−8.00; in the test on SK-OV-3, −6.85; in the test on LOX IMVI, −7.79; in the test on MALME-3M it was −7.14. Also, the Log10GI50 is recorded as −7.29 in the test with NCI-H460 and −6.39 in the test on CAKI-1. The Log10LC50 in the test with SF-295 is reported as −5.17; with ACHN, >−4.00; in the test with HCT-116 it was −4.54; in the test on SK-OV-3, >−4.00; with LOX IMVI it was −7.09; in the test on MALME-3M it was >−4.00. The Log10LC50 in the test on NCI-H460 is −4.85; with CAKI-1 it was >−4.00. Besides, the Log10TGI50 in the test with SF-295 is given as −5.56; with ACHN, >−4.00; in the test on HCT-116 it was −7.06; with SK-OV-3, −4.84; with LOX IMVI it was −7.44; in the test with MALME-3M, −6.30. Further, the Log10TGI50 with NCI-H460 was −6.51; in the test on CAKI-1, −5.55.

For the molecule `CC(C)C[C@H](NC(=O)[C@H](COC(F)F)NC(=O)CN1CCOCC1)C(=O)N[C@@H](Cc1ccccc1)C(=O)N[C@@H](Cc1ccccc1)C(=O)[C@@]1(C)CO1` [Example 3, (2S)-N-[(1S)-1-benzyl-2-[[(1S)-1-benzyl-2-[(2R)-2-methyloxiran-2-yl]-2-oxo-ethyl]amino]-2-oxo-ethyl]-2-[[(2S)-3-(difluoromethoxy)-2-[(2-morpholinoacetyl)-amino]propanoyl]amino]-4-methyl-pentan-amide], the Log10GI50 is on record as −7.34 in the test with SF-295; −7.13 in the test on ACHN; <−8.00 in the test with HCT-116; −7.26 in the test with SK-OV-3; <−8.00 in the test on LOX IMVI; −7.65 with MALME-3M. The Log10GI50 in the test with NCI-H460 was −7.43; with CAKI-1, −7.11. Also, the Log10LC50 is on record as −6.24 with SF-295; >−4.00 in the test with ACHN; >−4.00 in the test with HCT-116; >−4.00 with SK-OV-3; −7.13 with LOX IMVI; >−4.00 with MALME-3M. The Log10LC50 in the test on NCI-H460 is listed as −5.64; in the test on CAKI-1, −4.92. Further, the Log10TGI50 is −6.75 with SF-295; >−4.00 with ACHN; −7.34 in the test on HCT-116; −6.16 in the test on SK-OV-3; −7.71 in the test with LOX IMVI; −7.07 with MALME-3M. In addition, the Log10TGI50 is recorded as −6.77 in the test with NCI-H460 and −6.30 in the test with CAKI-1.
